The results in this text go back to US20250346600A1, “TRICYCLIC DERIVATIVES AND RELATED USES” (MOMA Therapeutics, Inc., priority 2023, published 2025).

Read-outs that look alike come from different tables or passages of the source.

Experiment [1] addresses T1, Full length WRN protein (aa 2-1432) (Homo sapiens (Human), UniProt Q14191). The experiment in a line: WRN ATPase ADP-Glo biochemical assay, Assay Format A (10 μM ATP). Conditions: 0.25 nM WRN, 100 nM C6.18 ssDNA, 30 min preincubation, read-out: ATPase ADPGlo AC50 (uM)- Assay Format A. The gist of the method: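 ADP-Glo luminescence measured hydrolysis of ATP by purified, baculovirus-expressed N-terminally tagged full-length WRN. Enzyme (0.5 nM) was preincubated 30 min with compound, then 200 nM ssDNA C6.18 plus 20 μM ATP were added (pre-mix levels) for 30 min at RT. IC50s come from four-parameter fits, geometric mean of at least two trials.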
In general terms: ADP-Glo turns the ADP formed in a reaction into a luminescent signal.

For experiment [2], the target named is T1, Full length WRN protein (aa 2-1432). The experiment in a line: WRN ATPase ADP-Glo biochemical assay, Assay Format B (100 μM ATP). Conditions: 0.25 nM WRN, 100 nM C6.18 ssDNA, 60 min preincubation, read-out: ATPase ADPGlo AC50 (uM)- Assay Format B.
Experiment [3] deals with HCT116 cells. The experiment in a line: HCT116 (MSI) 7 day viability, CellTiter Glo. In kind it is cell-based. Conditions: 7 days, read-out: HCT116 (MSI) Viability 7 Day Abs AC50. A digest of the protocol:
(§1)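 HCT116 seeded at 50 cells/well and HT29 at 500 cells/well onto compound plates (10-point 3-fold dilutions from 10 mM DMSO stock), incubated 7 days at 37 °C, 5% CO2.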
(In general: In ATP-based viability assays light output follows the ATP content of the culture.)

Experiment [4] concerns HT29 cells. The experiment in a line: HT29 (MSS) 7 day viability, CellTiter Glo. Type of experiment: cell-based. The settings on record: 7 days, read-out: HT29 (MSS) Viability 7 Day CTGAbs AC50. The gist of the method: as §1

T1 sequence (Q14191 2-1432): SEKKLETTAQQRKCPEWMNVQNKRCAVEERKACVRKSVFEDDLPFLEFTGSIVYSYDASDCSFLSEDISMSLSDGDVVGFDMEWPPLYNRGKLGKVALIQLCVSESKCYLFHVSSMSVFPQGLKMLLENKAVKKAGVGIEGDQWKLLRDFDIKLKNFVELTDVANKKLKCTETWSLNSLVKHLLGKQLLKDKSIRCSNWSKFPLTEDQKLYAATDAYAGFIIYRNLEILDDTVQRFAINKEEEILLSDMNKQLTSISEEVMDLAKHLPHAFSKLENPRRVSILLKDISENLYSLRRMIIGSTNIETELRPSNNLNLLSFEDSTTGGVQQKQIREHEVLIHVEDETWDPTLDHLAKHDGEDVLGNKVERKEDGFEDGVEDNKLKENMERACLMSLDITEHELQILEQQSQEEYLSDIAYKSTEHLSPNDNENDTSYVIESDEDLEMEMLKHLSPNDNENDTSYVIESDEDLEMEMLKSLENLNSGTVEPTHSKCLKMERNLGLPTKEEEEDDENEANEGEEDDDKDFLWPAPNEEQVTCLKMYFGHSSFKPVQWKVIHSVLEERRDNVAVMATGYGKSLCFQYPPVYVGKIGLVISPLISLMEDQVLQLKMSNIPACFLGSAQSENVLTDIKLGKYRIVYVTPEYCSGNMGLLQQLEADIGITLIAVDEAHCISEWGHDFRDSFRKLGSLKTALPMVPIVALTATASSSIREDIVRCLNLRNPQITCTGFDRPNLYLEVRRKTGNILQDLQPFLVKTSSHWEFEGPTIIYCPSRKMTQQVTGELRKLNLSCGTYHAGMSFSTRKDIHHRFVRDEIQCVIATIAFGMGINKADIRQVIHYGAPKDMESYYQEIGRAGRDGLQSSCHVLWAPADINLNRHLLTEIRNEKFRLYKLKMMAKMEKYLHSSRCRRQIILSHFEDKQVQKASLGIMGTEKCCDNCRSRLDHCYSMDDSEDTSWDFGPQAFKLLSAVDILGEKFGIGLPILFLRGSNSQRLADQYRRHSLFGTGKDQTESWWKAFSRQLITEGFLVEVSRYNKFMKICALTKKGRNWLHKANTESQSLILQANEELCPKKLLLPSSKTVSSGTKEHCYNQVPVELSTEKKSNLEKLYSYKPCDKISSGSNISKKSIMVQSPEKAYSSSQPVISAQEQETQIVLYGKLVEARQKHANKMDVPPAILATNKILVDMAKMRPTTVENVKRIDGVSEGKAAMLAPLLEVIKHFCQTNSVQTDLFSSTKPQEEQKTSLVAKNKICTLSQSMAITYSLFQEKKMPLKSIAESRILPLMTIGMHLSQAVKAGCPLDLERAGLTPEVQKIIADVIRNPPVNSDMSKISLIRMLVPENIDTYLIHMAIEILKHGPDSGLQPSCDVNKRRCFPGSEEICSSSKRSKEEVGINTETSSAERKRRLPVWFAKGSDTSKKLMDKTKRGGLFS

What is called AC50 is the concentration giving half of the maximal activity seen. Take `C=CC(=O)N1CCOc2nn(-c3ccc(C(C)C)cc3O)c3c2C(C1)N(C(=O)c1ccc(Br)c2[nH]cnc12)CC3` (stereo not shown) [Compound 44, 1-(5-(7-bromo-1H-benzo[d]imidazole-4-carbonyl)-2-(2-hydroxy-4-isopropylphenyl)-2,3,4,5,5a,6,8,9-octahydro-7H-10-oxa-1,2,5,7-tetraazacycloocta[cd]inden-7-yl)prop-2-en-1-one]: the AC50 is below 0.0015 µM in experiment [1]; 0.005 to 0.015 µM in experiment [2]; 1 to 100 nM in experiment [3] (Homo sapiens, HCT-116, 168 h); above 3000 nM in experiment [4] (Homo sapiens, HT-29, 168 h).
In the case of `C=CC(=O)N1CCOc2nn(-c3ccc(C(C)C)cc3O)c3c2C(C1)N(C(=O)c1cnc(C(F)(F)F)c(O)c1)CC3` (stereo not shown) [Compound 45, 1-(2-(2-hydroxy-4-isopropylphenyl)-5-(5-hydroxy-6-(trifluoromethyl)nicotinoyl)-2,3,4,5,5a,6,8,9-octahydro-7H-10-oxa-1,2,5,7-tetraazacycloocta[cd]inden-7-yl)prop-2-en-1-one], the concentration at half-maximal activity (AC50) in experiment [1] was 0.0015 to 0.005 µM; in experiment [2], 0.015 to 0.055 µM; in experiment [3] (Homo sapiens, HCT-116, 168 h), above 1000 nM; in experiment [4] (Homo sapiens, HT-29, 168 h), above 3000 nM.
With `C=CC(=O)N1CCOc2nn(-c3ccc(C(C)C)cc3)c3c2C(C1)N(C(=O)c1ccc(Br)c2[nH]cnc12)CC3` (stereo not shown) [Compound 46, 1-(5-(7-bromo-1H-benzo[d]imidazole-4-carbonyl)-2-(4-isopropylphenyl)-2,3,4,5,5a,6,8,9-octahydro-7H-10-oxa-1,2,5,7-tetraazacycloocta[cd]inden-7-yl)prop-2-en-1-one], the AC50 in experiment [1] was 0.0015 to 0.005 µM; in experiment [2], 0.015 to 0.055 µM; in experiment [3] (Homo sapiens, HCT-116, 168 h), 1 to 100 nM; in experiment [4] (Homo sapiens, HT-29, 168 h) it was above 3000 nM.
`C=CC(=O)N1CCOc2nn(-c3ccc(C(C)C)cc3)c3c2C(C1)N(C(=O)c1cnc(C(F)(F)F)c(O)c1)CC3` (stereo not shown) [Compound 47, 1-(5-(5-hydroxy-6-(trifluoromethyl)nicotinoyl)-2-(4-isopropylphenyl)-2,3,4,5,5a,6,8,9-octahydro-7H-10-oxa-1,2,5,7-tetraazacycloocta[cd]inden-7-yl)prop-2-en-1-one]: the AC50 in experiment [1] is 0.005 to 0.015 µM; in experiment [2], above 0.055 µM; in experiment [3] (Homo sapiens, HCT-116, 168 h) it was above 1000 nM; in experiment [4] (Homo sapiens, HT-29, 168 h) it was above 3000 nM.
Take `C=CC(=O)N1CCOc2nn(-c3ccc(C4CC4)cc3)c3c2C(C1)N(C(=O)c1ccc(Br)c2[nH]cnc12)CC3` (stereo not shown) [Compound 49, 1-(5-(7-bromo-1H-benzo[d]imidazole-4-carbonyl)-2-(4-cyclopropylphenyl)-2,3,4,5,5a,6,8,9-octahydro-7H-10-oxa-1,2,5,7-tetraazacycloocta[cd]inden-7-yl)prop-2-en-1-one]: the half-maximal activity concentration (AC50) was below 0.0015 µM in experiment [1]; 0.015 to 0.055 µM in experiment [2]; 1 to 100 nM in experiment [3] (Homo sapiens, HCT-116, 168 h); above 3000 nM in experiment [4] (Homo sapiens, HT-29, 168 h).
For the compound `C=CC(=O)N1CCOc2nn(-c3ccc(C4CC4)cc3)c3c2C(C1)N(C(=O)c1ccc(C(F)(F)F)c2[nH]ncc12)CC3` (stereo not shown) [Compound 50, 1-(2-(4-cyclopropylphenyl)-5-(7-(trifluoromethyl)-1H-indazole-4-carbonyl)-2,3,4,5,5a,6,8,9-octahydro-7H-10-oxa-1,2,5,7-tetraazacycloocta[cd]inden-7-yl)prop-2-en-1-one], the AC50 in experiment [1] is 0.0015 to 0.005 µM; in experiment [2], 0.015 to 0.055 µM; in experiment [3] (Homo sapiens, HCT-116, 168 h) it was 100 to 250 nM; in experiment [4] (Homo sapiens, HT-29, 168 h) it was above 3000 nM.
With `C=CC(=O)N1CC(C)Oc2nn(-c3ccc(C(C)C)cc3)c3c2C(C1)N(C(=O)c1ccc(Br)c2[nH]cnc12)CC3` (stereo not shown) [Compound 52, 1-(5-(7-bromo-1H-benzo[d]imidazole-4-carbonyl)-2-(4-isopropylphenyl)-9-methyl-2,3,4,5,5a,6,8,9-octahydro-7H-10-oxa-1,2,5,7-tetraazacycloocta[cd]inden-7-yl)prop-2-en-1-one], the AC50 in experiment [1] is 0.005 to 0.015 µM; in experiment [2], above 0.055 µM; in experiment [3] (Homo sapiens, HCT-116, 168 h), 250 to 500 nM; in experiment [4] (Homo sapiens, HT-29, 168 h), above 3000 nM.
For the compound `C=CC(=O)N1CC(C)Oc2nn(-c3ccc(C(C)C)cc3)c3c2C(C1)N(C(=O)c1ccc(Br)c2[nH]cnc12)CC3` (stereo not shown) [Compound 53, 1-(5-(7-bromo-1H-benzo[d]imidazole-4-carbonyl)-2-(4-isopropylphenyl)-9-methyl-2,3,4,5,5a,6,8,9-octahydro-7H-10-oxa-1,2,5,7-tetraazacycloocta[cd]inden-7-yl)prop-2-en-1-one], the AC50 is 0.015 to 0.055 µM in experiment [1], above 0.055 µM in experiment [2], 500 to 1000 nM in experiment [3] and above 3000 nM in experiment [4].
With `C=CC(=O)N1CC(F)Oc2nn(-c3ccc(C(C)C)cc3)c3c2C(C1)N(C(=O)c1ccc(Br)c2[nH]cnc12)CC3` (stereo not shown) [Compound 54, 1-(5-(7-bromo-1H-benzo[d]imidazole-4-carbonyl)-9-fluoro-2-(4-isopropylphenyl)-2,3,4,5,5a,6,8,9-octahydro-7H-10-oxa-1,2,5,7-tetraazacycloocta[cd]inden-7-yl)prop-2-en-1-one], the AC50 in experiment [1] was below 0.0015 µM; in experiment [2], 0.005 to 0.015 µM; in experiment [3], above 1000 nM; in experiment [4] (Homo sapiens, HT-29, 168 h), above 3000 nM.
As to `C=CC(=O)N1CC(F)Oc2nn(-c3ccc(C(C)C)cc3)c3c2C(C1)N(C(=O)c1ccc(Br)c2[nH]cnc12)CC3` (stereo not shown) [Compound 55, 1-(5-(7-bromo-1H-benzo[d]imidazole-4-carbonyl)-9-fluoro-2-(4-isopropylphenyl)-2,3,4,5,5a,6,8,9-octahydro-7H-10-oxa-1,2,5,7-tetraazacycloocta[cd]inden-7-yl)prop-2-en-1-one], the AC50 in experiment [1] was below 0.0015 µM; in experiment [2], 0.015 to 0.055 µM; in experiment [3], 100 to 250 nM; in experiment [4] it was above 3000 nM.
For the compound `C=CC(=O)N1CCc2nn(-c3ccc(C(C)C)c(F)c3N)c3c2C(C1)N(C(=O)c1cnc(C(F)(F)F)c(O)c1)CC3` (stereo not shown) [Compound 57, 1-(2-(2-amino-3-fluoro-4-isopropylphenyl)-5-(5-hydroxy-6-(trifluoromethyl)nicotinoyl)-2,3,4,5,5a,6,8,9-octahydro-7H-1,2,5,7-tetraazabenzo[cd]azulen-7-yl)prop-2-en-1-one], the AC50 in experiment [1] is 0.0015 to 0.005 µM; in experiment [2], 0.015 to 0.055 µM; in experiment [3] (Homo sapiens, HCT-116, 168 h), 100 to 250 nM; in experiment [4] (Homo sapiens, HT-29, 168 h), above 3000 nM.
For the compound `C=CC(=O)N1CCc2nn(-c3ccc(C(C)C)cc3)c3c2C(C1)N(C(=O)c1ccc(C(F)(F)F)c(=O)[nH]1)CC3` (stereo not shown) [Compound 58, 6-(7-acryloyl-2-(4-isopropylphenyl)-3,4,5,5a,6,7,8,9-octahydro-2H-1,2,5,7-tetraazabenzo[cd]azulene-5-carbonyl)-3-(trifluoromethyl)pyridin-2(1H)-one], the AC50 in experiment [1] is 0.0015 to 0.005 µM; in experiment [2] it was 0.015 to 0.055 µM; in experiment [3] (Homo sapiens, HCT-116, 168 h), 100 to 250 nM; in experiment [4] (Homo sapiens, HT-29, 168 h), above 3000 nM.
`C=CC(=O)N1CCc2nn(-c3ccc(C(C)C)cc3)c3c2C(C1)N(C(=O)c1cnc(C(F)(F)F)c(OCC(N)=O)c1)CC3` (stereo not shown) [Compound 59, 2-((5-(7-acryloyl-2-(4-isopropylphenyl)-3,4,5,5a,6,7,8,9-octahydro-2H-1,2,5,7-tetraazabenzo[cd]azulene-5-carbonyl)-2-(trifluoromethyl)pyridin-3-yl)oxy)acetamide]: the half-maximal activity concentration (AC50) in experiment [1] is 0.0015 to 0.005 µM; in experiment [2], 0.015 to 0.055 µM; in experiment [3] (Homo sapiens, HCT-116, 168 h), 100 to 250 nM; in experiment [4] (Homo sapiens, HT-29, 168 h), above 3000 nM.
